Target: T1, hGPR120 (Homo sapiens, UniProt Q5NUL3)
T1 construct: expressed in transfected cells; host or cells: CHO-K1
T1 sequence (Q5NUL3 1-361): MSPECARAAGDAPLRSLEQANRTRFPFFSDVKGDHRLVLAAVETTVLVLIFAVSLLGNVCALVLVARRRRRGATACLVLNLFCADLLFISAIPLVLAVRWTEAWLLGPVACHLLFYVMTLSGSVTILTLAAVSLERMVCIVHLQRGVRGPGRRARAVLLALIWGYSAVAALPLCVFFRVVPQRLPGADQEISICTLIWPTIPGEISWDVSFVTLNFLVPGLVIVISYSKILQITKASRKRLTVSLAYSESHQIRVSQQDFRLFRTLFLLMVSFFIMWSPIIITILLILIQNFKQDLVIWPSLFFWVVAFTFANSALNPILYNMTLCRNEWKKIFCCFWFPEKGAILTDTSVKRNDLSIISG
Assay: Measurement of activity of GPR120 agonist (cell-based calcium fluorescence assay)
Conditions: CHO-K1 cells expressing Ga16 and hGPR120, Calcium 5 dye fluorescence; activity class; read-out: EC50
In short: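 CHO-K1 cells co-expressing Gα16 and hGPR120, plated 18 h, loaded with Calcium 5 dye for 1 h at 37 °C, then given serially diluted agonists (final 0.5% DMSO). Fluorescence increase expressed as relative % of the 1% DMSO-only signal.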

**Q.** How did the EC50 turn out when `O=C(O)CCCOc1c(F)cc(-c2cccc(Oc3ccccc3)n2)cc1F` [Example 3, 4-[2,6-difluoro-4-(6-phenoxy-2-pyridyl)phenoxy]butyric acid] was run?
**A.** < 0.2 µM

**Q.** `CC(C)Oc1ncccc1-c1ccc(SCCCCC(=O)O)cc1` [Example 255, 5-[4-(2-isopropoxy-pyridin-3-yl)-phenylsulfanyl]-pentanoic acid] was tested. Which EC50 did it give?
**A.** 0.2 to 2 µM

**Q.** `CCSc1ncccc1-c1cc(F)c(OCCCC(=O)O)c(F)c1` [Example 206, 4-[4-(2-ethylsulfanyl-pyridin-3-yl)-2,6-difluoro-phenoxy]-butanoic acid] was tested. Which EC50 did it give?
**A.** < 0.2 µM

**Q.** For `O=C(O)CCCSc1ccc(-c2cccc(SC3CCC3)n2)cc1` [Example 156, 4-[4-(6-cyclobutylsulfanyl-pyridin-2-yl)-phenylsulfanyl]-butyric acid], which EC50 is on record?
**A.** < 0.2 µM

**Q.** With `CC(C)Oc1cccc(-c2cc(F)c(SCCCC(=O)O)c(F)c2)n1` [Example 137, 4-[2,6-difluoro-4-(6-isopropoxy-pyridin-2-yl)-phenylsulfanyl]-butyric acid] as the compound, how does the EC50 read?
**A.** < 0.2 µM

**Q.** Which EC50 does the source give for `CC(C)Oc1ccccc1-c1ccc(OCCCC(=O)O)cc1` [Example 57, 4-(2′-isopropoxy-biphenyl-4-yloxy)-butyric acid] here?
**A.** 0.2 to 2 µM

**Q.** With `Cc1cc(F)c(OC2CCCC2)c(-c2ccc(SCCCC(=O)O)c(F)c2)c1` [Example 195, 4-(2′-cyclopentyloxy-3,3′-difluoro-5′-methyl-biphenyl-4-ylsulfanyl)-butyric acid] as the compound, how does the EC50 read?
**A.** 0.2 to 2 µM

**Q.** How did the EC50 turn out when `CN(c1ccccc1)c1cccc(-c2cc(F)c(OCCCC(=O)O)c(F)c2)n1` [Example 17, 4-[2,6-difluoro-4-[6-(N-methylanilino)-2-pyridyl]phenoxy]butyric acid] was run?
**A.** 0.2 to 2 µM

**Q.** `O=C(O)CCCSc1c(F)cc(-c2cccnc2OCC2CCC2)cc1F` [Example 248, 4-[4-(2-cyclobutylmethoxy-pyridin-3-yl)-2,6-difluoro-phenylsulfanyl]-butyric acid] was tested. Which EC50 did it give?
**A.** < 0.2 µM

**Q.** For `O=C(O)CCCOc1ccc(-c2ccccc2OC2CCCC2)cc1` [Example 56, 4-(2′-cyclopentyloxy-biphenyl-4-yloxy)-butyric acid], which EC50 is on record?
**A.** 0.2 to 2 µM

**Q.** `O=C(O)CCCOc1c(F)cc(-c2cc(Cl)ccc2NC2CCCC2)cc1F` [Example 95, 4-[4-[5-chloro-2-(cyclopentylamino)phenyl]-2,6-difluoro-phenoxy]butanoic acid] was tested. Which EC50 did it give?
**A.** 0.2 to 2 µM

**Q.** `CCCSc1ncccc1-c1cc(F)c(OCCCC(=O)O)c(F)c1` [Example 204, 4-[2,6-difluoro-4-(2-propylsulfanyl-pyridin-3-yl)-phenoxy]-butanoic acid] was tested. Which EC50 did it give?
**A.** < 0.2 µM

**Q.** `O=C(O)CCCOc1c(F)cc(-c2cccc(OC3CCC3)n2)cc1F` [Example 25, 4-[4-[6-(cyclobutoxy)-2-pyridyl]-2,6-difluoro-phenoxy]butyric acid] was tested. Which EC50 did it give?
**A.** < 0.2 µM

**Q.** Which EC50 does the source give for `O=C(O)CCCSc1c(F)cc(-c2cccnc2SC2CCCC2)cc1F` [Example 147, 4-[4-(2-cyclopentylsulfanyl-pyridin-3-yl)-2,6-difluoro-phenylsulfanyl]-butyric acid] here?
**A.** < 0.2 µM

**Q.** Which EC50 does the source give for `O=C(O)CCCCSc1c(F)cc(-c2cccnc2OCC2CCC2)cc1F` [Example 260, 5-[4-(2-cyclobutylmethoxy-pyridin-3-yl)-2,6-difluoro-phenylsulfanyl]-pentanoic acid] here?
**A.** < 0.2 µM

**Q.** How did the EC50 turn out when `Cc1ccc(OC2CCCC2)c(-c2ccc(SCCCC(=O)O)cc2)c1` [Example 177, 4-(2′-cyclopentyloxy-5′-methyl-biphenyl-4-ylsulfanyl)-butyric acid] was run?
**A.** 0.2 to 2 µM

**Q.** Which EC50 does the source give for `CC(C)Nc1ccccc1-c1cc(F)c(SCCCC(=O)O)c(F)c1` [Example 165, 4-(3,5-difluoro-2′-isopropylamino-biphenyl-4-ylsulfanyl)-butyric acid] here?
**A.** < 0.2 µM

Source: patent publication US10221138B2, “Biaryl derivatives as GPR120 agonists” (LG CHEM, LTD., priority 2013, dated 2019)
